Melting point data for 121 compounds are collected here from a melting point compilation (Tetko et al.).

For `Nc1nnc(Cc2ccc(F)cc2)s1`, the melting point (as a rule, the temperature of the solid-liquid transition) was 170 to 172 °C.

As to `Nc1ccc2c(c1)NC(=O)CS2`, the melting point lay within 218 to 222 °C.

`O=C(O)CNS(=O)(=O)Cc1ccccc1` had a melting point of 153 to 155 °C.

Compound `Cc1cc2ncc(S(C)(=O)=O)c(N)n2n1` came in with a melting point of 208 to 210 °C.

Regarding `O=C(O)C(Cc1ccccc1)NC(=O)C12CC3CC(CC(C3)C1)C2` (stereo unspecified), the melting point was 162 to 164 °C.

Compound `O=C(O)c1ccc(NC(=O)N2CCCCC2)c(F)c1` returned a melting point of 179 to 181 °C.

Compound `Cc1onc(CC(=O)O)c1C#N` had a melting point of 59 to 61 °C.

As for `CCOC(=O)c1sc(-c2ccc(OC)cc2)cc1N`, the melting point lay in the range of 120 to 122 °C.

Regarding `O=C(O)c1cnc(S)n1-c1ccccc1`, the melting point is 245 to 247 °C.

The compound `O=S(=O)(c1ccc(S)nc1)N1CCCCC1` came in with a melting point of 218 to 221 °C.

Compound `Cn1nc(C2CCCCC2)cc1N` yielded a melting point of 169 to 171 °C.

Compound `Nc1cccc(C(=O)O)n1` yielded a melting point of 310 to 312 °C.

`CC(C)(C)OC(=O)N1CCC(C)(C(=O)O)CC1` had a melting point of 149 to 151 °C.

Take `Cc1cc(C(=O)N2CCOCC2)ccc1N`: the melting point was in the range of 101 to 103 °C.

Regarding `NCC(O)C1CC1` (stereo unspecified), the melting point was 34 to 36 °C.

`O=C(O)c1cc(C2CC2)nc2onc(-c3ccccc3)c12`: the melting point was 213 to 215 °C.

For `O=C(Cc1nc2ccccc2[nH]1)c1ccccc1`, the melting point lay in the range of 180 to 182 °C.

Compound `CCN(CC)S(=O)(=O)c1ccc(Br)c(C(=O)O)c1` had a melting point of 141 to 145 °C.

As for `O=[N+]([O-])c1ccc(Cl)c2cccnc12`, the melting point was 130 to 138 °C.

For `COC(=O)c1cc2ccccc2c(Cl)n1`, the melting point is 110 to 112 °C.

The compound `O=C(O)c1ccc(COc2ccccc2Br)cc1` yielded a melting point of 185 to 187 °C.

`Nc1ccc(Cl)c(C(=O)Nc2ccccc2)c1` came in with a melting point of 115 to 117 °C.

In turn, `O=C(O)c1ccc2noc(-c3ccccc3)c2c1` came in with a melting point of 242 to 244 °C.

For `c1coc(-c2cc[nH]n2)c1`, the melting point was 101 to 103 °C.

Turning to `COC(=O)COc1ccc2cc(Br)ccc2c1`, the melting point lay within 109 to 111 °C.

Compound `CSc1ccc(C#N)cc1N` showed a melting point of 42 to 44 °C.

With `CCOC(=O)NC(=N)N`, the melting point fell in the range of 104 to 106 °C.

For the compound `O=C(O)/C=C/c1ccccn1`, the melting point was 201 to 203 °C.

Take `Cc1ccc(C(=O)c2cccc(S(C)(=O)=O)c2)c(C)c1`: the melting point was in the range of 83 to 85 °C.

Regarding `CC(=O)CCc1ccc(OCCC(=O)O)cc1`, the melting point is 102 to 104 °C.

`Nc1cccc(-c2nc3ccccc3s2)c1` came in with a melting point of 138 to 140 °C.

`COC(=O)c1n[nH]c(=O)c2noc(C)c12` yielded a melting point of 215 to 217 °C.

`O=C(O)c1ccc(CS(=O)(=O)c2ccccc2)o1` returned a melting point of 180 to 182 °C.

With `CC(C)C(Br)C(=O)N1CCc2sccc2C1` (stereo unspecified), the melting point lay within 84 to 86 °C.

For `Cc1cc(=O)oc2cc(OCCBr)ccc12`, the melting point was 102 to 104 °C.

The compound `Cc1cc(C)n(-c2ccc(C(=O)O)cc2F)n1` yielded a melting point of 184 to 186 °C.

`COc1ccc(C(C)(C#N)NC(=O)C(F)(F)F)cc1OC` (stereo unspecified) yielded a melting point of 145 to 147 °C.

For `N#CCSc1cccc(C(=O)O)c1`, the melting point lay within 144 to 146 °C.

`COc1cc(C=O)cc(Br)c1OCc1ccccc1`: the melting point lay in the range of 48 to 50 °C.

In the case of `CCCCc1nc2cc(NC(C)=O)ccc2[nH]1`, the melting point is 192 to 194 °C.

Consider `O=C1COc2cccc(O)c2N1`, for which the melting point was in the range of 247 to 249 °C.

`Nc1ccc(S(=O)C(F)(F)F)cc1` (stereo unspecified) registered a melting point of 76 to 78 °C.

Compound `COC(=O)c1ccc(S(=O)(=O)Cl)cc1C` showed a melting point of 54 to 56 °C.

With `CCCn1c(C)nnc1S`, the melting point lay within 129 to 131 °C.

Compound `CCNCC(O)c1ccc(C)cc1` (stereo unspecified) yielded a melting point of 88 to 90 °C.

As to `N#CC1=C(N)CCCC1`, the melting point was 92 to 94 °C.

For `O=c1cc(CCl)nc2scnn12`, the melting point is 183 to 187 °C.

`Cc1cc(Cl)nc(-c2ccc([N+](=O)[O-])cc2)n1` gave a melting point of 184 to 186 °C.

Consider `CC1CN(c2ccc(C(=O)O)cn2)CC(C)O1` (stereo unspecified), for which the melting point is 219 to 221 °C.

Compound `CCOC(=O)/C(C#N)=C(\N)C(Cl)(Cl)Cl` came in with a melting point of 94 to 96 °C.

For `Nc1cnc(Br)c(Br)c1`, the melting point fell in the range of 106 to 108 °C.

In the case of `CNC(=O)c1cc(Oc2cccc(O)c2)ccn1`, the melting point lay within 124 to 126 °C.

Compound `COC(=O)COc1ccc(N)cc1Cl` gave a melting point of 66 to 68 °C.

`Brc1ccc(Cc2nnn[nH]2)cc1` came in with a melting point of 172 to 174 °C.

`Nc1ccc2c(c1)C(=O)CCC2` returned a melting point of 126 to 128 °C.

Compound `NC(=NO)c1ccc(O)cc1Cl` returned a melting point of 153 to 155 °C.

In turn, `Cc1ccc(S(=O)(=O)N2CCC(C(=O)O)CC2)cc1C` yielded a melting point of 190 to 192 °C.

Compound `O=C(O)C1CC1(Cl)Cl` (stereo unspecified) showed a melting point of 74 to 76 °C.

In the case of `CCNC(=O)c1ccc(N)cc1`, the melting point lay in the range of 73 to 75 °C.

In turn, `OCc1nccn1CC(F)(F)F` gave a melting point of 89 to 91 °C.

With `O=C(O)c1cc2c(OC(F)(F)F)cccc2[nH]1`, the melting point is 189 to 191 °C.

`CCOc1cc(C#N)ccc1O` showed a melting point of 75 to 77 °C.

The compound `Nc1cc([N+](=O)[O-])ccn1` gave a melting point of 96 to 98 °C.

The compound `O=C(O)c1ccnc(OC2CCOC2)c1` (stereo unspecified) had a melting point of 109 to 111 °C.

Consider `COc1cc(OC)c(C(=O)NO)cc1OC`, for which the melting point was in the range of 187 to 189 °C.

For `N#Cc1ccc(OCC(=O)NN)cc1`, the melting point lay in the range of 180 to 182 °C.

Compound `COc1cc(OC)c([N+](=O)[O-])cc1F` displayed a melting point of 152 to 154 °C.

The compound `N#CCc1nc(-c2ccccc2)n[nH]1` came in with a melting point of 165 to 167 °C.

With `O=C(NC(Cc1c[nH]cn1)C(=O)O)C1CCCCC1` (stereo unspecified), the melting point lay within 127 to 129 °C.

For `OC1CCCc2nc(-c3ccccc3)sc21` (stereo unspecified), the melting point fell in the range of 96 to 98 °C.

On to `Cc1ccc(C(=O)NCCN)cc1F`, for which the melting point is 71 to 73 °C.

As to `CCOc1cc(N)ccc1OC`, the melting point was 77 to 79 °C.

In turn, `O=C(O)c1ccc(Br)c(O)c1` had a melting point of 219 to 221 °C.

The compound `O=C(O)c1ccc(-n2cnnn2)cc1Cl` yielded a melting point of 179 to 181 °C.

As to `CCN(CC)S(=O)(=O)c1cc(C(=O)O)ccc1F`, the melting point was 159 to 161 °C.

With `Cn1c(Cl)cc(=O)[nH]c1=O`, the melting point was in the range of 195 to 197 °C.

Compound `CC(CC(=O)O)C1CCNCC1` (stereo unspecified) displayed a melting point of 255 to 257 °C.

For `O=C(O)CNC(=O)c1ccccc1C(F)(F)F`, the melting point was 152 to 154 °C.

For `COc1ccc(N(C)S(=O)(=O)c2cccc(C(=O)O)c2)cc1`, the melting point is 172 to 174 °C.

In turn, `Cc1ccc(Br)cc1S(N)(=O)=O` yielded a melting point of 139 to 141 °C.

`CCN(CC)C(=O)c1ccccc1N` came in with a melting point of 71 to 73 °C.

In turn, `CC(C)(C)Oc1ccc(N)cc1` showed a melting point of 60 to 62 °C.

As for `O=C(O)c1ccc(Cn2ccccc2=O)o1`, the melting point fell in the range of 199 to 201 °C.

As to `O=Cc1ccc(N2CCCCC2)s1`, the melting point was 73 to 75 °C.

On to `CC(=O)C(Cl)C(=O)Nc1ccccc1` (stereo unspecified), for which the melting point lay in the range of 101 to 104 °C.

As for `CCOC(=O)c1nnc2ccccc2c1N`, the melting point was in the range of 239 to 241 °C.

In turn, `Cc1ccc(C)c(N2C(=O)C=CC2=O)c1` showed a melting point of 79 to 81 °C.

Take `CC(CC(=O)O)c1ccc(Br)cc1` (stereo unspecified): the melting point was 101 to 103 °C.

Consider `CC(C)(C)OC(=O)N1CCN2C(=O)C(=O)NCC2C1` (stereo unspecified), for which the melting point lay in the range of 222 to 224 °C.

Consider `COCCn1c(S)nnc1-c1ccccc1`, for which the melting point fell in the range of 133 to 135 °C.

The compound `COc1cc(C(=O)O)ccc1OCc1cnn(C)c1` showed a melting point of 182 to 184 °C.

Compound `NC(=O)CC1CCCC1` displayed a melting point of 149 to 151 °C.

With `CCC(CC)(CN)NC(=O)OC(C)(C)C`, the melting point lay in the range of 49 to 51 °C.

`CC(=O)N1CCC(C)(C(=O)O)C1` (stereo unspecified): the melting point was 120 to 122 °C.

Regarding `COc1ccc(C(=O)C(F)(F)F)cc1OC`, the melting point was in the range of 77 to 79 °C.

Consider `CCN(c1ccccc1)S(=O)(=O)c1ccc(NN)nc1`, for which the melting point lay within 175 to 177 °C.

For the compound `O=C(O)CCNc1ccccc1[N+](=O)[O-]`, the melting point lay in the range of 144 to 146 °C.

For `O=[N+]([O-])c1cc(S(=O)(=O)NCCN2CCOCC2)ccc1Cl`, the melting point was in the range of 119 to 121 °C.

The compound `CN1CCN(S(=O)(=O)c2cccc(C(=O)O)c2)CC1` registered a melting point of 230 to 232 °C.

As to `CCOC(=O)c1c[nH]n2c1nc(=O)c1ccccc12`, the melting point is 201 to 203 °C.

`O=C(O)CCCNS(=O)(=O)c1ccc2c(c1)OCCO2` yielded a melting point of 120 to 122 °C.

For `O=C1COc2ccc(C(=O)CCl)cc2N1`, the melting point was 228 to 230 °C.

`O=C(O)C(c1ccccc1)N1CCc2ccccc21` (stereo unspecified) gave a melting point of 181 to 183 °C.

As to `CCOC(=O)C(N)c1cccc(O)c1` (stereo unspecified), the melting point fell in the range of 148 to 150 °C.

`CC(NC(=O)c1ccc(S(=O)(=O)N(C)C)cc1)C(=O)O` (stereo unspecified) had a melting point of 180 to 182 °C.

In turn, `O=Cc1ccc(Oc2ccc(Cl)cc2[N+](=O)[O-])cc1` gave a melting point of 69 to 71 °C.

Compound `Cc1c(Cl)cc(C(=O)O)cc1S(=O)(=O)Cl` showed a melting point of 167 to 169 °C.

As to `O=c1[nH]ncc2c[nH]nc12`, the melting point was in the range of 266 to 268 °C.

Turning to `Nc1c2c(nn1-c1ccccc1)CCC2`, the melting point was in the range of 180 to 182 °C.

Turning to `Nn1c(S)nnc1Cc1ccccc1F`, the melting point lay within 158 to 161 °C.

With `CCOC(=O)c1c(N)sc2c1CC(C)(C)NC2(C)C`, the melting point lay in the range of 95 to 97 °C.

In turn, `O=C(O)CCCS(=O)(=O)N1CCCC1` yielded a melting point of 130 to 132 °C.

Compound `FC(F)(F)Cn1c(S)nnc1N1CCOCC1` registered a melting point of 175 to 177 °C.

As to `O=[N+]([O-])c1n[nH]cc1S(=O)(=O)Cl`, the melting point was 154 to 156 °C.

`O=C(O)CCCn1ccccc1=O` returned a melting point of 121 to 123 °C.

The compound `Cc1ccc(-c2csc3ncnc(Cl)c23)cc1C` displayed a melting point of 179 to 181 °C.

`Nc1ccc(F)cc1-c1ccc(Cl)cc1`: the melting point is 54 to 56 °C.

`N#Cc1ccc(Oc2ccc(Cl)cc2)c(F)c1`: the melting point fell in the range of 67 to 69 °C.

Consider `Cn1c(CC(N)=NO)nc2ccccc21`, for which the melting point was 240 to 242 °C.

In the case of `O=C(O)c1ncoc1-c1ccccc1Cl`, the melting point lay in the range of 194 to 196 °C.

In turn, `SC1=Nc2ccccc2CS1` showed a melting point of 149 to 151 °C.
